These results are taken from US20250215029A1 (Recludix Pharma, Inc., priority 2022, published 2025).

Like-named read-outs stand apart in the source and are kept apart here.

Experiment [1] addresses T1, Recombinant STAT3 protein (STAT3 (G127-I722)) (Homo sapiens, UniProt P40763).
T1 construct: Recombinant STAT3 protein (STAT3 (G127-I722))
Put plainly: STAT3 Fluorescence Polarization (FP) Assay. The format is binding. Particulars: probe 5-FAM-GpYLPQTV-NH2 2 nM, 45-minute incubation. The method in brief:
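In this competition FP format, STAT3 residues G127-I722 (25 nM) and 2 nM 5-FAM-GpYLPQTV-NH2 met test compounds for 45 min at room temperature. IC50 values result from fitting mP signal against log concentration by nonlinear regression.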
(Fluorescence polarisation rises when a labelled molecule tumbles more slowly, as on binding a larger partner.)

Experiment [2] deals with T2, Recombinant STAT6 protein (STAT6 (W123-T658)) (Homo sapiens, UniProt P42226).
T2 construct: Recombinant STAT6 protein (STAT6 (W123-T658))
T2 sequence (P42226 123-658): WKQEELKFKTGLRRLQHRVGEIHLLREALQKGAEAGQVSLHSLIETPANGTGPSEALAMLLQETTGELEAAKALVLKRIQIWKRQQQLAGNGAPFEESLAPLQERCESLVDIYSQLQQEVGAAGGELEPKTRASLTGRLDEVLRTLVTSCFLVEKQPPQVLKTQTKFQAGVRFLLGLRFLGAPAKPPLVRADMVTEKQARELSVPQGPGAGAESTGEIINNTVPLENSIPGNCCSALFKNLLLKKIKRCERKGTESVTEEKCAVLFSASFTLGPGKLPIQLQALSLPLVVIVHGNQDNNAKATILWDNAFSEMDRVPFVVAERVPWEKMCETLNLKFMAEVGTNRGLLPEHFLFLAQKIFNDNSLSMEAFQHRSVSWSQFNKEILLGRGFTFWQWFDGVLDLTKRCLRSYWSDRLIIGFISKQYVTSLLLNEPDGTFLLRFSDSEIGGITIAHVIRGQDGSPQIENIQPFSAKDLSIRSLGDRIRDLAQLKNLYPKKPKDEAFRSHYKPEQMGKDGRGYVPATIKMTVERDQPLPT
Nature of the experiment: STAT6 Fluorescence Polarization (FP) Assay. The format is binding. Particulars: 45-minute incubation. In a few lines: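 Displacement of a fluorescent phosphotyrosine peptide (2 nM) from 250 nM STAT6 (W123-T658) is measured by polarization after a 45-minute room-temperature incubation. Compounds are titrated serially at 1% DMSO, and IC50 values derive from regression of mP on log concentration.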

Where [3] appears, read: STAT3 (G127-I722) 25 nM, read-out: STAT3 (FP assay IC50 class).
Where [4] appears, read: STAT6 (W123-T658) 250 nM, probe 5-FAM-Ap[…]-NH2 2 nM, read-out: STAT6 (FP assay IC50 class).
Where [5] appears, read: STAT3 25 nM, read-out: STAT3 (FP assay IC50).
Setting [6] is: STAT6 250 nM, probe 5-FAM-Ap[…]-NH2 2 nM, read-out: STAT6 (FP assay IC50).

T1 sequence (P40763 127-722): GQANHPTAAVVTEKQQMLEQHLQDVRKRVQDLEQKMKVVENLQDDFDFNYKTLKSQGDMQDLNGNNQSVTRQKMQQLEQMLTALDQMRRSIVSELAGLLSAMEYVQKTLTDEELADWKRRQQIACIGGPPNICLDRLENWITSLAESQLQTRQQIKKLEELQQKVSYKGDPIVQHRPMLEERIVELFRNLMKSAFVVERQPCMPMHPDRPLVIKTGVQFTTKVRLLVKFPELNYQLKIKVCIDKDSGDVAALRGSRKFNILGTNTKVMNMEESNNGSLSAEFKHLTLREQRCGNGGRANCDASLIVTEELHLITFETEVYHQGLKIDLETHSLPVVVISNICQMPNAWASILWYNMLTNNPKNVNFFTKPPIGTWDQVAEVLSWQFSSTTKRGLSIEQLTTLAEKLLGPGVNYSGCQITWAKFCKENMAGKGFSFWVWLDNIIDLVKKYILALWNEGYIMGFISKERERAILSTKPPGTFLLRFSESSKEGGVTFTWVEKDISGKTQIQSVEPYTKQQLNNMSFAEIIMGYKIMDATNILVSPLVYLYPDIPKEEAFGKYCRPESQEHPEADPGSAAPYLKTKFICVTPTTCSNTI

For orientation: IC50 means the midpoint of a concentration-inhibition curve. Consider `O=C(N[C@H]1C/C=C\C[C@@H]2[C@H](O)C[C@@H](C(=O)N3CC(C(=O)N4CCOCC4)C3)N2C1=O)c1cc2cc(C(F)(F)P(=O)(O)O)ccc2s1` [Compound 730, (difluoro(2-(((1R,3S,6S,10aR,Z)-1-hydroxy-3-(3-(morpholine-4-carbonyl)azetidine-1-carbonyl)-5-oxo-1,2,3,5,6,7,10,10a-octahydropyrrolo[1,2-a]azocin-6-yl)carbamoyl)benzo [b]thiophen-5-yl)methyl) phosphonic acid], for which the IC50 fell in the range of 1 to 10 µM in experiment [1] (setting [3]) and 3 to 30 µM in experiment [2] (setting [4]).

As for `O=C(N[C@H]1CCC[C@H]2CC[C@@H](C(=O)N3CC(c4cnccc4OCc4ccncc4)C3)N2C1=O)c1cc2cc(C(F)P(=O)(O)O)ccc2s1` (stereo partly drawn) [Compound 705, (fluoro(2-(((3S,6S,9aS)-5-oxo-3-(3-(4-(pyridin-4-ylmethoxy)pyridin-3-yl)azetidine-1-carbonyl)octahydro-1H-pyrrolo[1,2-a]azepin-6-yl)carbamoyl)benzo [b]thiophen-5-yl)methyl) phosphonic acid], the IC50 is under 0.1 µM in experiment [1] (setting [3]) and 3 to 30 µM in experiment [2] (setting [4]).

In the case of `CC(c1ccc2ccc(C(=O)N[C@H]3CCCC[C@H]4CC[C@@H](C(=O)N5C[C@@H](c6ccccc6)CC56CC6)N4C3=O)cc2c1)P(=O)(O)O` (single isomer, unassigned) [Compound 897], the IC50 in experiment [1] (setting [3]) lay in the range of 1 to 10 µM; in experiment [2] (setting [4]), 3 to 30 µM.

`N#CC1C(c2ccccc2)CN(C(=O)[C@@H]2CC[C@@H]3CCC[C@H](NC(=O)c4cc5cc([C@@H](F)P(=O)(O)O)ccc5s4)C(=O)N32)C12CC2` (stereo in doubt) [Compound 921, ((S)-(2-(((3S,6S,9aS)-3-((6R,7S)-7-cyano-6-phenyl-4-azaspiro[2.4]heptane-4-carbonyl)-5-oxooctahydro-1H-pyrrolo[1,2-a]azepin-6-yl)carbamoyl)benzo [b]thiophen-5-yl)fluoromethyl) phosphonic acid]: the IC50 in experiment [1] (setting [3]) was 1 to 10 µM; in experiment [2] (STAT6 (W123-T658) 250 nM, probe 5-FAM-ApYKPFQDLI-NH2 2 nM, read-out: STAT6 (FP assay IC50 class)), at most 0.3 µM.

Regarding `Cn1ccc(C2CN(C(=O)[C@@H]3CC[C@@H]4CCCC[C@H](NC(=O)c5cc6cc(C(F)P(=O)(O)O)ccc6s5)C(=O)N43)C3(CC3)C2)cc1=O` (stereo partly drawn) [Compound 898, (fluoro(2-(((3S,6S,10aS)-3-(6-(1-methyl-2-oxo-1,2-dihydropyridin-4-yl)-4-azaspiro[2.4]heptane-4-carbonyl)-5-oxodecahydropyrrolo [1,2-a]azocin-6-yl)carbamoyl)benzo [b]thiophen-5-yl)methyl) phosphonic acid], the IC50 in experiment [1] (setting [3]) was 1 to 10 µM; in experiment [2] (setting [4]), at most 0.3 µM.

On to `COC1(c2nccn2C)CN(C(=O)[C@@H]2CC[C@@H]3CCC4(CC4)C[C@H](NC(=O)c4ccc5ccc(C(F)(F)P(=O)(O)O)cc5c4)C(=O)N32)C1` [Compound 215, (difluoro(7-(((3′S,6′S,10a′S)-3′-(3-methoxy-3-(1-methyl-1H-imidazol-2-yl)azetidine-1-carbonyl)-5′-oxooctahydro-5′H-spiro[cyclopropane-1,8′-pyrrolo[1,2-a]azocin]-6′-yl)carbamoyl)naphthalen-2-yl)methyl)phosphonic acid], for which the IC50 in experiment [1] (setting [3]) was 1 to 10 µM; in experiment [2] (setting [4]), 3 to 30 µM.

Consider `O=C(N[C@H]1CCCC[C@H]2CC[C@@H](C(=O)N3CC(N4CCS(=O)(=O)CC4)C3)N2C1=O)c1cc2cc(C(F)P(=O)(O)O)ccc2s1` (stereo partly drawn) [Compound 573, ((2-(((3S,6S,10aS)-3-(3-(1,1-dioxidothiomorpholino)azetidine-1-carbonyl)-5-oxodecahydropyrrolo[1,2-a]azocin-6-yl)carbamoyl)benzo[b]thiophen-5-yl)fluoromethyl)phosphonic acid], for which the figures for the IC50 in experiment [1] (setting [3]) and in experiment [2] (setting [4]) were 0.1 to 1 µM and 3 to 30 µM, respectively.

For the compound `O=C(N[C@H]1CCC[C@H]2CC[C@@H](C(=O)N3CC(c4cnccc4Oc4ccccc4)C3)N2C1=O)c1cc2cc(C(F)P(=O)(O)O)ccc2s1` (stereo partly drawn) [Compound 699, (fluoro(2-(((3S,6S,9aS)-5-oxo-3-(3-(4-phenoxypyridin-3-yl)azetidine-1-carbonyl)octahydro-1H-pyrrolo[1,2-a]azepin-6-yl)carbamoyl)benzo [b]thiophen-5-yl)methyl) phosphonic acid], the IC50 in experiment [1] (setting [3]) is under 0.1 µM; in experiment [2] (setting [4]) it was 3 to 30 µM.

Regarding `O=C(/C=C/c1ccc(C(F)(F)P(=O)(O)O)cc1)N[C@H]1CCC[C@H]2CC[C@@H](C(=O)Nc3ccc(-c4ccccc4)cc3)N2C1=O` [Compound 35, ((4-((E)-3-(((3S,6S,9S)-3-([1,1′-biphenyl]-4-ylcarbamoyl)-5-oxooctahydro-1H-pyrrolo[1,2-a]azepin-6-yl)amino)-3-oxoprop-1-en-1-yl)phenyl)difluoromethyl) phosphonic acid], the IC50 in experiment [1] (setting [5]) is over 10 µM; in experiment [2] (setting [6]) it was 3 to 30 µM.

Turning to `O=C(N[C@H]1CCCC[C@H]2CC[C@@H](C(=O)N3CCC(c4cccnc4)CC3)N2C1=O)c1cc2cc(C(F)P(=O)(O)O)ccc2s1` (stereo partly drawn) [Compound 564, (fluoro(2-(((3S,6S,10aS)-5-oxo-3-(4-(pyridin-3-yl)piperidine-1-carbonyl)decahydropyrrolo[1,2-a]azocin-6-yl)carbamoyl)benzo[b]thiophen-5-yl)methyl)phosphonic acid], the IC50 was 0.1 to 1 µM in experiment [1] (setting [3]) and 3 to 30 µM in experiment [2] (setting [4]).

Consider `O=C(N[C@H]1CCCC[C@H]2CC[C@@H](C(=O)N3CCC(O)(c4cc[nH]c(=O)c4)C3)N2C1=O)c1cc2cc(C(F)(F)P(=O)(O)O)ccc2s1` (stereo partly drawn) [Compound 513, (difluoro(2-(((3S,6S,10aS)-3-(3-hydroxy-3-(2-oxo-1,2-dihydropyridin-4-yl)pyrrolidine-1-carbonyl)-5-oxodecahydropyrrolo[1,2-a]azocin-6-yl)carbamoyl)benzo[b]thiophen-5-yl)methyl)phosphonic acid], for which the results for the IC50 in experiment [1] (setting [3]) and in experiment [2] (setting [4]) were 0.1 to 1 µM and 0.3 to 3 µM, respectively.

In the case of `CCO[C@H]1CC[C@H]2CC[C@@H](C(=O)N3CC(C(=O)N4CCOCC4)C3)N2C(=O)[C@@H](NC(=O)c2cc3cc(C(F)(F)P(=O)(O)O)ccc3s2)C1` [Compound 10, ((2-(((3S,6S,8S,10aR)-8-ethoxy-3-(3-(morpholine-4-carbonyl)azetidine-1-carbonyl)-5-oxodecahydropyrrolo [1,2-a]azocin-6-yl)carbamoyl)benzo[b]thiophen-5-yl)difluoromethyl) phosphonic acid], the values for the IC50 in experiment [1] (setting [5]) and in experiment [2] (setting [6]) were 0.1 to 1 µM and 3 to 30 µM, respectively.

For the compound `O=C(N[C@H]1CCCC[C@H]2CC[C@@H](C(=O)N3CC(c4ccccc4)CC34CC4)N2C1=O)c1ccc2ccc(CP(=O)(O)O)nc2c1` (stereo partly drawn) [Compound 571, ((7-(((3S,6S,10aS)-5-oxo-3-(6-phenyl-4-azaspiro[2.4]heptane-4-carbonyl)decahydropyrrolo[1,2-a]azocin-6-yl)carbamoyl)quinolin-2-yl)methyl)phosphonic acid], the IC50 in experiment [1] (setting [3]) was in the range of 1 to 10 µM; in experiment [2] (setting [4]), 3 to 30 µM.

Turning to `N#C[C@H]1CN(C(=O)[C@@H]2CC[C@@H]3CC[C@@H](N4CCC4)C[C@H](NC(=O)c4cc5cc(C(F)(F)P(=O)(O)O)ccc5s4)C(=O)N32)C[C@@H]1c1ccccc1` (mixture of isomers) [Compound 23, ((2-(((3S,6S,8R,10aS)-8-(azetidin-1-yl)-3-(rel- trans)-3-cyano-4-phenylpyrrolidine-1-carbonyl)-5-oxodecahydropyrrolo [1,2-a]azocin-6-yl)carbamoyl)benzo[b]thiophen-5-yl)difluoromethyl) phosphonic acid], the IC50 in experiment [1] (setting [5]) lay within 1 to 10 µM; in experiment [2] (setting [6]) it was 0.3 to 3 µM.
